ChEMBL document CHEMBL2412969, “Antihyperglycemic and antihyperlipidemic activities of 2-(4-[(2-hydroxybenzyl) amino]-phenyl amino-methyl)-phenol in STZ induced diabetic rats” (Eur J Med Chem, 2013)
Active and inactive are the calls of the source. No cut-off for these calls is given here.

Experiments:
Rattus norvegicus [1] = assay: Antihyperlipidemic activity in Wistar albino rat streptozotocin-induced diabetic model assessed as reduction of serum triglyceride level at 20 mg/kg, po qd for 30 days; assay type: functional, organism-based; set-up: dose 20 mg/kg
Rattus norvegicus [2] = assay: Antihyperlipidemic activity in Wistar albino rat streptozotocin-induced diabetic model assessed as reduction of serum total cholesterol level at 20 mg/kg, po qd for 30 days; assay type: functional, organism-based; set-up: dose 20 mg/kg
Rattus norvegicus [3] = assay: Antihyperglycemic activity in Wistar albino rat streptozotocin-induced diabetic model assessed as reduction of blood glucose level at 20 mg/kg, po after 2 hrs (reference value: 386.66 +/- 17.5 mg/dl); assay type: functional
Rattus norvegicus [4] = assay: Antihyperglycemic activity in Wistar albino rat streptozotocin-induced diabetic model assessed as increase of body weight at 20 mg/kg, po qd measured on day 15 (reference value: -30.3%); assay type: functional
Rattus norvegicus [5] = assay: Antihyperglycemic activity in Wistar albino rat streptozotocin-induced diabetic model assessed as reduction of fasting blood glucose level at 20 mg/kg, po qd measured on day 15 (reference value: 404.2 +/- 29.15 mg/dl); assay type: functional
Rattus norvegicus [6] = assay: Antihyperglycemic activity in Wistar albino rat streptozotocin-induced diabetic model assessed as reduction of fasting blood glucose level at 20 mg/kg, po qd measured on day 1 (reference value: 416.4 +/- 24.2 mg/dl); assay type: functional
Rattus norvegicus [7] = assay: Renalprotective activity in Wistar albino rat assessed as protection against streptozotocin-induced increase in creatinine level in blood at 20 mg/kg, po qd for 30 days; assay type: functional
Rattus norvegicus [8] = assay: Renalprotective activity in Wistar albino rat assessed as protection against streptozotocin-induced increase in urea level in blood at 20 mg/kg, po qd for 30 days; assay type: functional
Rattus norvegicus [9] = assay: Antihyperglycemic activity in Wistar albino rat streptozotocin-induced diabetic model assessed as reduction of blood glucose level at 20 mg/kg, po after 4 hrs (reference value: 373.5 +/- 15.6 mg/dl); assay type: functional
Rattus norvegicus [10] = assay: Antihyperlipidemic activity in Wistar albino rat streptozotocin-induced diabetic model assessed as increase of serum HDL-cholesterol level at 20 mg/kg, po qd for 30 days; assay type: functional, organism-based; set-up: dose 20 mg/kg
Rattus norvegicus [11] = assay: Antihyperlipidemic activity in Wistar albino rat streptozotocin-induced diabetic model assessed as reduction of serum VLDL-cholesterol level at 20 mg/kg, po qd for 30 days; assay type: functional, organism-based; set-up: dose 20 mg/kg
Rattus norvegicus [12] = assay: Antihyperglycemic activity in Wistar albino rat streptozotocin-induced diabetic model assessed as reduction of blood glucose level at 20 mg/kg, po after 3 hrs (reference value: 384.33 +/- 17.33 mg/dl); assay type: functional
Rattus norvegicus [13] = assay: Antihyperglycemic activity in Wistar albino rat streptozotocin-induced diabetic model assessed as reduction of fasting blood glucose level at 20 mg/kg, po qd measured on day 30 relative to control; assay type: functional
Rattus norvegicus [14] = assay: Antihyperlipidemic activity in Wistar albino rat streptozotocin-induced diabetic model assessed as reduction of serum LDL level at 20 mg/kg, po qd for 30 days; assay type: functional, organism-based; set-up: dose 20 mg/kg
Rattus norvegicus [15] = assay: Antihyperglycemic activity in Wistar albino rat streptozotocin-induced diabetic model assessed as reduction of blood glucose level at 20 mg/kg, po after 5 hrs (reference value: 372.2 +/- 16.6 mg/dl); assay type: functional
Rattus norvegicus [16] = assay: Antiatherosclerosis activity in Wistar albino rat streptozotocin-induced diabetic model assessed as protection from atherogenicity at 20 mg/kg, po qd for 30 days relative to control; assay type: functional
Rattus norvegicus [17] = assay: Antihyperglycemic activity in Wistar albino rat streptozotocin-induced diabetic model assessed as reduction of blood glucose level at 20 mg/kg, po after 6 hrs (reference value: 372.5 +/- 15.6 mg/dl); assay type: functional
Rattus norvegicus [18] = assay: Antihyperglycemic activity in Wistar albino rat streptozotocin-induced diabetic model assessed as reduction of blood glucose level at 20 mg/kg, po after 1 hr (reference value: 389.16 +/- 19 mg/dl); assay type: functional

COc1ccc(Cl)cc1C(=O)NCCc1ccc(S(=O)(=O)NC(=O)NC2CCCCC2)cc1 [GLYBURIDE]
Activity (Rattus norvegicus [1]): Active | Activity (Rattus norvegicus [2]): Active | Activity (Rattus norvegicus [3]): 237 mg/dL | Activity (Rattus norvegicus [4]): -10% | Activity (Rattus norvegicus [5]): 204 mg/dL | Activity (Rattus norvegicus [6]): 356 mg/dL | Activity (Rattus norvegicus [7]): 0.425 mg/dL | Activity (Rattus norvegicus [8]): 49.1 mg/dL | Activity (Rattus norvegicus [9]): 197.6 mg/dL | Activity (Rattus norvegicus [10]): Active | Activity (Rattus norvegicus [11]): Active | Activity (Rattus norvegicus [12]): 213.3 mg/dL | Activity (Rattus norvegicus [13]): 188.1 mg/dL | Activity (Rattus norvegicus [14]): Active | Activity (Rattus norvegicus [15]): 188.1 mg/dL | Activity (Rattus norvegicus [16]): 55.5% | Activity (Rattus norvegicus [17]): 206 mg/dL | Activity (Rattus norvegicus [18]): 243.5 mg/dL
